For data set [1], the system named is cecal ligation and puncture (CLP) model. Nature of the data set: Therapeutic efficacy in cecal ligation and puncture (CLP) polymicrobial sepsis model. It is filed as in vivo, C57BL/6 mice. Conditions: IV 2 h post-CLP and every 2 days, max three times; D-TZP and TZP 10 mg/kg PMB eq., free PMB 5 mg/kg. As for the experimental part:
The efficacy of systemic […] was further tested in cecal ligation and puncture (CLP) model, which induces systemic inflammation by polymicrobial infection and thus simulates a clinically relevant septic state (Toscano, M. G. et al., JoVE, e2860 (2011)). D-TZP and TZP was administered IV at 10 mg/kg PMB eq. 2 h post-CLP and every subsequent 2 days a maximum total of three times. Free PMB was given at 5 mg/kg IV in the same schedule as D-TZP.
Therapeutic efficacy in polymicrobial sepsis model by cecal ligation and puncture (CLP). The efficacy of D-TZP and TZP was evaluated in a cecal ligation and puncture (CLP) model, the gold standard of polymicrobial sepsis model. The abdomen of 6 week-old C57BL/6 male was cleaned with a hair-removal cream (Nair, Church & Dwight Co., Inc). The mice were anesthetized by 2.5% isofluorane. Betadine 0.5% solution and 70% isopropyl alcohol swap were alternately applied three times to disinfect the shaved abdomen. Midline laparotomy was performed under an aseptic condition to exteriorize the cecum. The cecum was ligated below the ileocecal valve with a 5-0 suture (perma-hand silk, Ethicon) and perforated twice with 20 G needle on the same side of the cecum to release feces into the peritoneal cavity. After perforation, the intestines were returned to abdominal cavity. […] Animals were monitored as described in the endotoxemia model.

The test system of data set [2] is Escherichia coli ATCC 2452. Nature of the data set: Minimum inhibitory concentration, broth microdilution. Format: cell-based. From the text:
(§1) Bacterial cell lines and reagents. Escherichia coli ATCC 2452 (NDM-1, isolated in Pakistan) was New Delhi metallo-beta-lactamase (NDM-1) positive, blaNDM positive by PCR, and carbepenem-resistant (Imipenem and Ertapenem). Escherichia coli ATCC 2469 (1001728, isolated from human urine) was New Delhi metallo-beta-lactamase (NDM-1) positive, blaKPC negative and blaNDM positive by PCR, and Carbepenem-resistant (Imipenem and Ertapenem). Klebsiella pneumoniae (NR-41920, isolated in 2008 from human blood culture in Boston, Massachusetts, USA) was Carbapenem-resistant strain, blaKPC-3 positive by PCR, and resistant to amikacin, ampicillin/sulbactam, cefazolin, cefepime, ceftazidime, ceftriaxone, cefuroxime, ciprofloxacin, gentamicin, meropenem, piperacillin/tazobactam, tobramicin and trimethoprim/sulfamethoxazole. Pseudomonas aeruginosa (NR-50573, isolated in early 1970s from the blood of a burn patient at Mercy Hospital in Pittsburgh, Pennsylvania, USA) was resistant to rifampicin and susceptible to meropenem, ofloxacin, ceftazidime, amikacin, and tobramycin. 0.5 McFarland standard was purchased from ThermoFisher scientific (Waltham, MA, USA). Mueller-Hinton broth and tryptone soy agar plates were purchased from Becton, Dickinson and company (Franklin Lakes, New Jersey, USA).
(§2) Antimicrobial activities The minimum inhibitory concentrations (MICs) of the control antibiotics (gentamicin and imipenem), PMB, D-TZP and TZP against Escherichia coli, Klebsiella pneumoniae and Pseudomonas aeruginosa strains were determined by the broth microdilution method, according to guidelines outlined by the Clinical and Laboratory Standards Institute (CLSI)^18. The bacterial stains were grown aerobically overnight on tryptone soy agar plates at 37° C. Afterwards, a bacterial solution equivalent to 0.5 McFarland standard was prepared and diluted in cation-adjusted Mueller-Hinton broth (CAMHB) to achieve a bacterial concentration of ˜5×10^5 CFU/mL. The treatments were added in the first row of the 96-well plates and serially diluted with media containing bacteria. Plates were incubated aerobically at 37° C. for 16-18 hours.

Data set [3] relates to Escherichia coli ATCC 2469. The data set is described as above. Format: cell-based.
Description: as §1, §2

Data set [4] has as its system Klebsiella pneumoniae NR-41920. Described as above. It is filed as cell-based.
Description: as §1, §2

The test system of data set [5] is Pseudomonas aeruginosa NR-50573. Described as above. Format: cell-based.
Description: as §1, §2

The next data set relates to J774a.1 macrophages. Nature of the data set: Effect on cell membrane, confocal microscopy with wheat germ agglutinin. It is filed as cell-based. Conditions: eq. to 150 μg/mL PMB, 12 h. As for the experimental part: Effect of PMB and D-TZP on cell membrane. The effect of D-TZP on J774A.1 cell membrane was monitored by two methods (scanning electron microscopy and confocal microscopy). For scanning electron microscopy, J774A.1 macrophages were plated in a 6-well plate at a density of 3×10^5 cells per well with 3 mL of complete medium. After overnight incubation at 37° C. in a 5% CO2 atmosphere, the cells were treated with either free PMB or D-TZP at a concentration equivalent to 150 μg/mL PMB for 12 h. The cells were centrifuged at 233 relative centrifugal force (rcf) for 3 min. The medium was removed, and 2.5% glutaraldehyde solution was added for fixation overnight at 4° C. The cells were then rinsed three times with water (5 min each) and incubated in 2% Osmium tetroxide for 1 h. After rinsing another three times with water (5 min each), the cells were dehydrated with a series of ethanol gradients (50%, 75%, 95%) for 10 minutes at each step. The dehydrated cells were rinsed with 100% ethanol three times for 10 minutes each time, stored in a 1:1 mixture of HMDS and ethanol in 1:1 for 30 min, and rinsed with 100% HMDS for 30 min twice. After overnight drying, the cells were placed on a carbon tape attached to an aluminum stud and coated with platinum for SEM analysis. The morphology of treated J774a.1 cells then was observed by a FEI NOVA NanoSEM scanning electron microscope (SEM). […]

Experimental findings from patent publication US11865158B2, “Process and composition matter of nanoparticle formulation for systemic treatment of sepsis” (PURDUE RESEARCH FOUNDATION, priority 2019, dated 2024) are described below.

Take polymyxin B [PMB]: the survival in data set [1] was determined as 33%. In addition, the “Minimum inhibitory concentration (MIC)” value came to 0.5 µg/mL in data set [2], 0.125 µg/mL in data set [3], 0.5 µg/mL in data set [4] and 0.5 µg/mL in data set [5]. The “cell membrane staining with wheat germ agglutinin” value in the data set on J774a.1 macrophages is “significant membrane damage”.
